Laboratory results: patent US8324264B1, “Inhibitors of bacterial biofilms and related methods” (Sequoia Sciences, Inc., priority 2011, dated 2012)
Converted amounts (≈) assume the structure as drawn.

Legend:
[1] = system: P. aeruginosa biofilms; experiment: Biofilm growth assay (spreading biofilm on semi-solid agar), P. aeruginosa; type: cell-based; settings: biofilm growth assay, overnight 37° C., vs negative controls, Tables 1-5; for IC85: Pseudomonas aeruginosa, read-out: P. aeruginosa: concentration that reduces the area of the spreading biofilm by greater than or equal to 85%
Outline: (§1)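 Values are compound concentrations (μg/ml) that cut the spreading-biofilm zone area by ≥85% relative to negative controls after overnight 37 °C growth from 5 μL central inoculum. E. coli plates: LB, 0.6% agar, 0.5% glucose; P. aeruginosa plates: M8 agar plus 0.2% glucose, 100 μM CaCl2, 1 mM MgSO4, 0.5% Casamino acids.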

[2] = system: E. coli biofilms; experiment: Biofilm growth assay (spreading biofilm on semi-solid agar), E. coli; type: cell-based; settings: biofilm growth assay, overnight 37° C., vs negative controls, Tables 1-5; for IC85: Escherichia coli, read-out: E. coli: concentration that reduces the area of the spreading biofilm by greater than or equal to 85%
Outline: as §1

Compound | IC85 [1] [µg/mL] | IC85 [2] [µg/mL] | P. aeruginosa: concentration that reduces the area of the spreading biofilm by greater than or equal to 85% [1] [µg/mL] | E. coli: concentration that reduces the area of the spreading biofilm by greater than or equal to 85% [2] [µg/mL]
CC1(C)CC[C@]2(C(=O)O)CC[C@]3(C)C(=C(c4cccc(O)c4)CC4[C@@]5(C)Cc6c(n[nH]c6N)C(C)(C)C5CC[C@]43C)C2C1 (stereo partly drawn) [Example 16, (4aS,6aS,6bR,13aR)-12-Amino-15-(3-hydroxyphenyl)-2,2,6a,6b,9,9,13a-heptamethyl-2,3,4,4a,5,6,6a,6b,7,8,8a,9,11,13,13a,13b,14,15b-octadecahydro-1H-chryseno[1,2-f]indazole-4-a-carboxylic acid] | 1 (≈ 1.71 µM) | 2 (≈ 3.41 µM) | – | –
CC1(C)CC[C@]2(C(=O)O)CC[C@]3(C)C(=C(c4ccoc4CN4CCNCC4)CC4[C@@]5(C)Cc6c(n[nH]c6N)C(C)(C)[C@@H]5CC[C@]43C)[C@@H]2C1 (stereo partly drawn) [Example 35, (4aS,6aS,6bR,8aR,13aR,15bS)-12-Amino-2,2,6a,6b,9,9,13a-heptamethyl-15-(2-(piperazin-1-ylmethyl)furan-3-yl)-2,3,4,4a,5,6,6a,6b,7,8,8a,9,11,13,13a,13b,14,15b-octadecahydro-1H-chryseno[1,2-f]indazole-4-a-carboxylic acid] | – | – | >1 | 1
CCC1=C2[C@@H]3CC(C)(C)CC[C@]3(C(=O)O)CC[C@@]2(C)[C@]2(C)CC[C@H]3C(C)(C)c4n[nH]c(N)c4C[C@]3(C)C2C1 (stereo partly drawn) [Example 14, (4aS,6aS,6bR,8aR,13aR,15bS)-12-Amino-15-ethyl-2,2,6a,6b,9,9,13a-heptamethyl-2,3,4,4a,5,6,6a,6b,7,8,8a,9,11,13,13a,13b,14,15b-octadecahydro-1H-chryseno[1,2-f]indazole-4-a-carboxylic acid] | 0.5 (≈ 0.958 µM) | 2 (≈ 3.83 µM) | – | –
CC1(C)CC[C@]2(C(=O)O)CC[C@]3(C)C(=C(c4ccoc4CN4CCCC4)CC4[C@@]5(C)Cc6c(n[nH]c6N)C(C)(C)C5CC[C@]43C)C2C1 (stereo partly drawn) [Example 37, (4aS,6aS,6bR,13aR)-12-Amino-2,2,6a,6b,9,9,13a-heptamethyl-15-(2-(pyrrolidin-1-ylmethyl)furan-3-yl)-2,3,4,4a,5,6,6a,6b,7,8,8a,9,11,13,13a,13b,14,15b-octadecahydro-1H-chryseno[1,2-f]indazole-4-a-carboxylic acid] | – | – | >1 | 1
CC1(C)CC[C@]2(C(=O)O)CC[C@]3(C)C(=C(c4cccc(N)c4)CC4[C@@]5(C)Cc6c(n[nH]c6N)C(C)(C)[C@@H]5CC[C@]43C)[C@@H]2C1 (stereo partly drawn) [Example 15, (4aS,6aS,6bR,8aR,13aR,15bS)-12-Amino-15-(3-aminophenyl)-2,2,6a,6b,9,9,13a-heptamethyl-2,3,4,4a,5,6,6a,6b,7,8,8a,9,11,13,13a,13b,14,15b-octadecahydro-1H-chryseno[1,2-f]indazole-4-a-carboxylic acid] | – | – | 0.25 | 1
CN(C)c1ccc(C2=C3[C@@H]4CC(C)(C)CC[C@]4(C(=O)O)CC[C@@]3(C)[C@]3(C)CC[C@H]4C(C)(C)c5n[nH]c(N)c5C[C@]4(C)C3C2)cc1 (stereo partly drawn) [Example 10, (4aS,6aS,6bR,13aR)-12-Amino-15-(4-(dimethylamino)phenyl)-2,2,6a,6b,9,9,13a-heptamethyl-2,3,4,4a,5,6,6a,6b,7,8,8a,9,11,13,13a,13b,14,15b-octadecahydro-1H-chryseno[1,2-f]indazole-4-a-carboxylic acid] | 0.5 (≈ 0.816 µM) | 1 (≈ 1.63 µM) | – | –
CC1(C)CC[C@]2(c3nnc(O)s3)CC[C@]3(C)C(=CCC4[C@@]5(C)Cc6c(n[nH]c6N)C(C)(C)C5CC[C@]43C)C2C1 (stereo partly drawn) [Compound 78, 5-((4aS,6aS,6bR,13aR)-12-Amino-2,2,6a,6b,9,9,13a-heptamethyl-2,3,4,4a,5,6,6a,6b,7,8,8a,9,11,13,13a,13b,14,15b-octadecahydro-1H-chryseno[1,2-f]indazol-4-a-yl)-1,3,4-thiadiazol-2-ol] | – | – | >1 | 1
CC1(C)CC[C@]2(C(=O)O)CC[C@]3(C)C(=C(c4ccoc4CN4CCOCC4)CC4[C@@]5(C)Cc6c(n[nH]c6N)C(C)(C)[C@@H]5CC[C@]43C)[C@@H]2C1 (stereo partly drawn) [Example 32, (4aS,6aS,6bR,8aR,13aR,15bS)-12-Amino-2,2,6a,6b,9,9,13a-heptamethyl-15-(2-(morpholinomethyl)furan-3-yl)-2,3,4,4a,5,6,6a,6b,7,8,8a,9,11,13,13a,13b,14,15b-octadecahydro-1H-chryseno[1,2-f]indazole-4-a-carboxylic acid] | – | – | 0.5 | 1
CC1(C)CC[C@]2(C(=O)O)CC[C@]3(C)C(=CCC4[C@@]5(C)CC6=NCN=C6C(C)(C)C5CC[C@]43C)C2C1 (stereo partly shown) [F] | 4 (≈ 8.36 µM) | > 8 | – | –
CC1(C)CC[C@]2(C(=O)O)CC[C@]3(C)C(=CCC4[C@@]5(C)Cc6c(n[nH]c6CO)C(C)(C)C5CC[C@]43C)C2C1 (stereo partly shown) [G] | > 8 | > 8 | – | –
Cn1cc(C2=C3[C@@H]4CC(C)(C)CC[C@]4(C(=O)O)CC[C@@]3(C)[C@]3(C)CC[C@H]4C(C)(C)c5n[nH]c(N)c5C[C@]4(C)C3C2)cn1 (stereo partly drawn) [Example 28, (4aS,6aS,6bR,8aR,13aR,15bS)-12-Amino-2,2,6a,6b,9,9,13a-heptamethyl-15-(1-methyl-1H-pyrazol-4-yl)-2,3,4,4a,5,6,6a,6b,7,8,8a,9,11,13,13a,13b,14,15b-octadecahydro-1H-chryseno[1,2-f]indazole-4-a-carboxylic acid] | – | – | 1 | 2
Cc1nnc(S)n1NC(=O)[C@]12CCC(C)(C)CC1C1=CCC3[C@@]4(C)Cc5c(n[nH]c5N)C(C)(C)C4CC[C@@]3(C)[C@]1(C)CC2 (stereo partly drawn) [Compound 77, (4aS,6aS,6bR,13aR)-12-Amino-N-(3-mercapto-5-methyl-4H-1,2,4-triazol-4-yl)-2,2,6a,6b,9,9,13a-heptamethyl-2,3,4,4a,5,6,6a,6b,7,8,8a,9,11,13,13a,13b,14,15b-octadecahydro-1H-chryseno[1,2-f]indazole-4-a-carboxamide] | 1 (≈ 1.65 µM) | 2 (≈ 3.3 µM) | – | –
Cn1cc2c(n1)C(C)(C)C1CC[C@]3(C)C(CC=C4C5CC(C)(C)CC[C@]5(C(=O)O)CC[C@]43C)[C@@]1(C)C2 (stereo partly shown) [E] | 2 (≈ 4.06 µM) | > 16 | – | –
CC1(C)CC[C@]2(C(=O)Nc3nnc(N)s3)CC[C@]3(C)C(=CCC4[C@@]5(C)Cc6c(n[nH]c6N)C(C)(C)C5CC[C@]43C)C2C1 (stereo partly drawn) [Compound 71, (4aS,6aS,6bR,13aR)-12-Amino-N-(5-amino-1,3,4-thiadiazol-2-yl)-2,2,6a,6b,9,9,13a-heptamethyl-2,3,4,4a,5,6,6a,6b,7,8,8a,9,11,13,13a,13b,14,15b-octadecahydro-1H-chryseno[1,2-f]indazole-4-a-carboxamide] | 0.5 (≈ 0.845 µM) | 2 (≈ 3.38 µM) | – | –
CC1(C)CC[C@]2(C(=O)O)CC[C@]3(C)C(=C(c4ccc(N5CCC(N)C5)nc4)CC4[C@@]5(C)Cc6c(n[nH]c6N)C(C)(C)C5CC[C@]43C)C2C1 (stereo partly drawn) [Example 58, (4a-8,6a8,6bR,13aR)-12-Amino-15-(6-(3-aminopyrrolidin-1-yl)pyridin-3-yl)-2,2,6a,6b,9,9,13a-heptamethyl-2,3,4,4a,5,6,6a,6b,7,8,8a,9,11,13,13a,13b,14,15b-octadecahydro-1H-chryseno[1,2-f]indazole-4-a-carboxylic acid] | – | – | 1 | 2
CC1(C)CC[C@]2(C(=O)O)CC[C@]3(C)C(=C(c4ccccc4CN4CCOCC4)CC4[C@@]5(C)Cc6c(n[nH]c6N)C(C)(C)[C@@H]5CC[C@]43C)[C@@H]2C1 (stereo partly drawn) [Example 59, (4aS,6aS,6bR,8aR,13aR,15bS)-12-Amino-2,2,6a,6b,9,9,13a-heptamethyl-15-(2-(morpholinomethyl)phenyl)-2,3,4,4a,5,6,6a,6b,7,8,8a,9,11,13,13a,13b,14,15b-octadecahydro-1H-chryseno[1,2-f]indazole-4-a-carboxylic acid] | – | – | 0.5 | >1
CNCCc1c([C@]23CCC(C)(C)CC2C2=CCC4[C@@]5(C)Cc6c(n[nH]c6N)C(C)(C)C5CC[C@@]4(C)[C@]2(C)CC3)n[nH]c1O (stereo partly drawn) [Compound 86, 3-((4aS,6aS,6bR,13aR)-12-Amino-2,2,6a,6b,9,9,13a-heptamethyl-2,3,4,4a,5,6,6a,6b,7,8,8a,9,11,13,13a,13b,14,15b-octadecahydro-1H-chryseno[1,2-f]indazol-4-a-yl)-4-(2-(methylamino)ethyl)-1H-pyrazol-5-ol] | – | – | 0.5 | 2
